Measured values taken from patent US12115232B2, “Preparation for magnetic resonance diagnostics for oncological diseases, comprising deuterated 3-O-methylglucose, and diagnostic method using said preparation” (SOLVEX LIMITED LIABILITY COMPANY, priority 2017, dated 2024).

Experiments:
[1] = tested on: tumor; test: Preliminary 2H MRI tumor visualization experiments with glucose derivatives; format: in vivo
Excerpt: The authors of this invention have studied various derivatives of glucose as a potential diagnostic agent. It was discovered that not all glucose derivatives can be used for the diagnostics of oncological diseases through ^2H MRI or ^2H NMR.

[2] = tested on: breast carcinoma 4T1
Description: In the examples below, the MRI scanner Bruker BioSpec BC70/30 USR with the constant field of 7.05 T, equipped with a surface transmitting-and-receiving coil with a diameter of 3 cm and a scan depth of ca. 1 cm was used.
To register deuterium image the FLASH (Fast low angle shot) pulse sequence was used.
For experiments with the broadband excitation the following settings were used: the excitation frequency was determined by ^2H NMR spectrum and was sfo1≈46.1745 MHz, a rectangular excitation pulse with a width of 1300 Hz and a power of 36 dB, the flip angle FA=30°, the repetition time TR=11.8 MS, echo time TE=4.4 msec, a scan area of 10 cm×10 cm, scan matrix, 50×50, slice thickness 3 cm, bandwidth of 12500 Hz, total scan time 10 minutes (1030 averages).
In this example, experiments were conducted on mice Balb/c inoculated with breast carcinoma 4T1 (injection of 5×10^5 cells/60 μl under the left front paw for 10 days before experiment) and in healthy Balb/c mice.
A solution of 20-72 mg of 3-O-CD3-glucose was administered to an animal weighing 20 g was injected intraperitoneally, intravenously or via gavage (intraperitoneal: 0.5 ml of a saline solution; intravenous: 0.2 ml of water; oral: 0.25 ml of a saline solution). After injection, the animal was kept in a separate cage with free access to food and water within specified time. For imaging the animal was immobilized with isoflurane. The surface transmitting-and-receiving coil was fixed on the body of the mouse from the dorsal side in the thoracic region.

Row | Structure (SMILES) | tumor visualization by 2H MRI [1] | accumulation in tumor by 2H MRI after intravenous injection ([2]; 20 mg intravenous, 50 minutes, mouse no. 3 (FIG. 9)) | location of agent by 2H MRI after oral administration, late ([2]; 70 mg oral, 100 min (text: 115 min), mouse no. 4 (FIG. 10)) | accumulation in tumor visualized by 2H MRI ([2]; 72 mg intraperitoneal, 20-320 min after administration, mouse no. 2 (FIGS. 5-8)) | 2H MRI signal in control mouse without tumors ([2]; 72 mg intraperitoneal, 40 minutes after administration, mouse no. 1) | valid range of the diagnostic agent doses ([2]; mouse, FIGS. 5-9)
1 | OCC1OC(O)C(O)C(O)C1O (stereo not drawn) [6,6-D2-glucose] | not possible to accurately visualize the tumor |  |  |  |  | 
2 | [2H]C([2H])([2H])O[C@H]1[C@H](O)[C@@H](CO)OC(O)[C@@H]1O (stereo partly drawn) [3-O-CD3-glucose] |  | accumulation of 3-O-CD3-glucose in the tumor | accumulated in tumors | accumulated in the tumor in sufficient concentration to be visualized | missing an area with a strong signal of deuterium | 1-3.5 g per 1 kg of animal weight
